Assay results as given in patent EP2601963B1, “N-ISOVALEROYL-L-GLUTAMYL-L-TRYPTOPHAN AS AN AGENT INHIBITING THE FORMATION OF ULCERS IN THE STOMACH AND THE DUODENUM” (Obshestvo S Ogranichennoj Otvetstvennostju "CytoNIR", priority 2010, dated 2015).

Experiments:
[1] = tested on: indomethacin-induced ulcers; assay: Indomethacin-induced ulcer model, therapeutic treatment: healing of gastric lesions; type: in vivo, male Wistar rats
Procedure: (§1) All studies were conducted on male Wistar rats weighing 220 ± 20 g, obtained from Rappolovo nursery (Leningrad oblast). For 14 days prior to the experiment, the animals were held in isolation. The animals were handled in accordance with the European Convention for the Protection of Vertebrate Animals used for Experimental and Other Scientific Purposes (Strasburg, 1986). The animals were held in standard plastic cages and fed a standard diet of PK120-3 (granulated feed in accordance with order # 1179 M3 USSR 10/10/1983) with a free access to water.
(§2) Animals' body weight changes were monitored throughout the experiment. The experimental animals were then sacrificed by decapitation, and their blood was collected in test tubes. The stomachs were extracted, dissected along the major curve, rinsed with cold saline solution, and the mucosa was carefully examined through a magnifying glass under bright lights. The mucosa was inspected for color, the presence of hyperemia and its intensity. The number of lesions, which were differentiated into small round (less than 1 mm), linear, and large lesions (more than 1mm) and the size of the area they covered were calculated. The average number of lesions per one animal in a group and the percentage of animals with ulcers were also calculated. Pauls Index (PI) was used as an integral indicator of the number of lesions and was calculated as follows: • PI = average number of lesions in a group x % of animals with lesions/100 [Pauls F., Wick A.M.,Mac. Key E.M. et al. An assau method for anti ulcer substances // Gastroenterology.- 1947. #8.- p.p.774 - 782]. Ulcer index UI was calculated as: UI = average lesion area size in the group x % of animals with lesions/100; gastroprotective activity GA1 was calculated as: GA1 = PI of the control group/PI of the experimental group, GA2 = UI of the control group/UI of the experimental group. The proposed drug was considered active when GA ≥ 2.
Five groups of 10 animals per group were prepared for the experiment as described in Example 1.
In each series of the experiments, the animals were divided into experimental and control groups at 10 animals per group. The proposed medication or a comparator drug were orally administered to the animals in the experimental group, and the control animals were given distilled water in the same amount. • control group received distilled water per os; • experimental group 1 received 0.1 mkg/kg isovaleroyl glutamyl tryptophan; • experimental group 2 received 10 mkg/kg isovaleroyl glutamyl tryptophan; • experimental group 3 received 200 mkg/kg of the comparator drug Sucralfate.
2 ml/kg of the ulcerogenic dose of indomethacin equal to 30 mg/kg was administered intraperitoneally. The treatment started 24 hrs. post indomethacin administration and continued for 5 days. The animals in the experimental groups received N-isovaleroyl-L-glutamyl-L-tryptophan or the comparator drug Sucralfate, and the control group received distilled water.

[2] = Acute toxicity, single intramuscular dose; type: in vivo, white outbred male mice; details: single-dose administration, dose exceeding the recommended therapeutic dose more than 100 times
Procedure: Total toxicity of N-isovaleroyl-L-glutamyl-L-tryptophan was studied in accordance with the requirements of The Handbook of the Experimental (non-clinical) Studies of Novel Pharmaceutical Substances (2000): single dose acute toxicity and sub-acute and chronic toxicity during long-term administration of the dipeptide.
Acute toxicity testing was conducted on 60 white outbred male mice with 20 - 23 g body weights. The animals were divided into 6 equal groups. Single intramuscular doses of the medication were administered to the animals in the amount of 0.1 ml in the following doses: 1 mg/kg, 5 mg/kg, 10 mg/kg, and 20 mg/kg in sterile 0.9 % NaCl solution. The animals in the control group were receiving the same amounts of 0.9 % NaCl solution.

[3] = tested on: stress-induced gastric ulcers; assay: Water-immersion stress model: gastric lesions, preventive treatment; type: in vivo, male Wistar rats; design: key to GA1 (gastroprotective activity calculated for number of lesions): GA1 = PI of control group / PI of treated group; key to GA2 (gastroprotective activity calculated for lesion size): GA2 = UI of control group / UI of treated group; key to Pauls Index: PI = mean lesions per group × % animals with lesions / 100; key to Ulcer Index: UI = mean lesion area in group × % animals with lesions / 100
Procedure: as §1
In each series, the animals were divided into experimental and control groups with 10 rats per group. The animals in the experimental groups were orally administered the claimed preparation or a comparator drug, and the control group animals received distilled water in the same amount.
The experimental animals were divided into 5 groups, 10 animals each. The animals received the following therapy: • control group received distilled water per os; • experimental group 1 received 0.1 mkg/kg N-isovaleroyl-L-glutamyl-L-tryptophan; • experimental group 2 received 10 mkg/kg N-isovaleroyl-L-glutamyl-L-tryptophan; • experimental group 3 received 200 mkg/kg of the comparator drug Sucralfate; • experimental group 4 received 50 mkg/kg of the comparator drug Misoprostol;
The experiment was conducted as follows: • The proposed drug, comparator drugs, and distilled water were administered once daily over 7 days, and on the day of the ulcerogenic stress induction one hour prior to the stress.
The rats deprived of food for 18 hrs. were placed into special cases and immersed in water vertically to the level of their xyphoids. The animals were held in this position for 5 hrs. at 23° C water temperature. After that, the animals were removed from the experiment.
as §2

[4] = Indomethacin 30 mg/kg + 200 mg/kg, treatment 5 days

## aluminum complex of beta-D-fructofuranosyl-alpha-D-glucopyranoside octakis (hydrosulfate) [Sucralfate]
[1]; [4]
  # Lesions: 3.3 ± 1.0
  % Animals with Ulcers: 85.7%
  GA1 (gastroprotective activity calculated for number of lesions): 3.0
  GA2 (gastroprotective activity calculated for lesion size): 3.3
  Lesion Size: 11.5 ± 4.26
  PI: 2.8
  Ulcer Index: 9.86
[1]; treatment after Indomethacin
  animals found to have lesions: 85.7%

## N-isovaleroyl-L-glutamyl-L-tryptophan [VGT preparation]
[2]
  toxic reactions: did not cause any toxic reactions
[3]; 0.1 mkg/kg + stress
  # Lesions: 15.4 ± 2.1
  % Animals with Ulcers: 90%
  GA1 (gastroprotective activity calculated for number of lesions): 1.59
  GA2 (gastroprotective activity calculated for lesion size): 2.58
  Large round Amt.: 6.9 ± 1.4
  Large round Size: 4.4 ± 1.1
  Lesion Size: 8.7 ± 2.0
  Linear Amt.: 1.5 ± 0.7
  Linear Size: 2.4 ± 1.0
  Pauls Index: 13.9
  Small round Amt.: 7.0 ± 1.4
  Small round Size: 1.9 ± 0.4
  Total Amt.: 15.4 ± 2.1
  Total Size: 8.7 ± 2.0
  Ulcer Index: 7.83
[3]; 10 mkg/kg + stress
  # Lesions: 16.3 ± 1.5
  % Animals with Ulcers: 100%
  GA1 (gastroprotective activity calculated for number of lesions): 1.36
  GA2 (gastroprotective activity calculated for lesion size): 2.08
  Lesion Size: 9.7 ± 1.2
  Pauls Index: 16.3
  Ulcer Index: 9.7
[3]; 10.0 mkg/kg + stress
  Large round Amt.: 5.7 ± 1.1
  Large round Size: 3.4 ± 0.7
  Linear Amt.: 1.4 ± 0.3
  Linear Size: 3.9 ± 1.4
  Small round Amt.: 9.2 ± 1.5
  Small round Size: 2.5 ± 0.4
  Total Amt.: 16.3 ± 1.5
  Total Size: 9.7 ± 1.2
[3]; stress, both doses
  size of lesions smaller than in the control group animals: 2.1 - 2.6 times
[3]; stress, depending on the dose (0.1 mkg/kg by Table 1)
  reduced the size of large lesions: 2.7 times
[3]; stress, depending on the dose (10 mkg/kg by Table 1)
  reduced the size of large lesions: 3.4 times
